Results from PMC7496690, “Structure‐Activity Relationship and Crystallographic Studies on 4‐Hydroxypyrimidine HIF Prolyl Hydroxylase Domain Inhibitors” (Chemmedchem, 2019).
Read-outs that look alike come from different tables or passages of the source.

Legend:
[1] = target: T1, OGFOD1 (Homo sapiens, UniProt Q8N543); assay: MALDI-TOF MS OGFOD1 hydroxylation assay; assay type: biochemical; conditions: at 10 μM inhibitor
T1 construct: made in house
T1 sequence (Q8N543 1-542): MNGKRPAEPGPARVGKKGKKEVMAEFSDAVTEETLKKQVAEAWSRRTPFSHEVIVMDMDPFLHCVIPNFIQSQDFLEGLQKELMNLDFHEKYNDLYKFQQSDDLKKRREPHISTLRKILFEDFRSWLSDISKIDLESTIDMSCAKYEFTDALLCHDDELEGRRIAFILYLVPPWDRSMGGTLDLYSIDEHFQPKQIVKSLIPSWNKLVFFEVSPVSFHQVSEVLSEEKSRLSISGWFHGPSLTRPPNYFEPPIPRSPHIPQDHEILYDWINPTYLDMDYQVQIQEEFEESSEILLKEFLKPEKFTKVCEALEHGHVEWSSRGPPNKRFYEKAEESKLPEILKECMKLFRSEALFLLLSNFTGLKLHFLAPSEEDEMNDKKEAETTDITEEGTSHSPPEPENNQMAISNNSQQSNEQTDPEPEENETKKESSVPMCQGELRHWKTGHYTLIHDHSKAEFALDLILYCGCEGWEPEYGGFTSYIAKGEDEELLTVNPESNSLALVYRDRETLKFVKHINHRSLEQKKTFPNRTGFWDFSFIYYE
Description: Supplementary Information […]
acid. […] Assay plates were transferred to a
MALDI-TOF MS OGFOD1 Hydroxylation Assays […]
metal affinity chromatography.
The optimized hydroxylation […]
(§1) presence of Fe(II) (50 μM), 2OG (25 μM), L-ascorbic acid (100 μM) and RPS2351-70 (25 μM) in HEPES (50 mM, pH 7.5) at 37 °C for 15 min. Reagent solutions were made as previously reported.[23] Reactions were quenched with formic acid (1 % v/v). Samples were prepared by mixing reaction mixture (1 μL) with α-cyano-4-hydrocinnamic acid (CHCA) solution (water:acetonitrile 1:1) (1 μL). Dose-response was assessed in 8-point triplicates.
(§2) Data were analysed using GraphPad Prism 5.04.

[2] = target: T2, viral collagen prolyl hydroxylase (vCPH) (Paramecium bursaria Chlorella virus 1, UniProt Q84406); assay: MALDI-TOF MS vCPH hydroxylation assay; assay type: biochemical
T2 construct: made in house
T2 sequence (Q84406 entry or part of it): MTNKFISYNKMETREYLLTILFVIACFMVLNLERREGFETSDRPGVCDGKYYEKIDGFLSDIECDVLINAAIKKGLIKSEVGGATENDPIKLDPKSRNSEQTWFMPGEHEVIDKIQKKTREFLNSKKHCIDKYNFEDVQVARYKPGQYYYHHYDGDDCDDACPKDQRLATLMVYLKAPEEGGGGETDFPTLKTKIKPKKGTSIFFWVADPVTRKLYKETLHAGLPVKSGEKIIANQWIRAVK
Description: as §1, with “Supplementary Information presence” for “presence”
as §2

[3] = target: T3, PHD2_181‐426 (Homo sapiens, UniProt Q9GZT9); assay: biochemical
T3 sequence (Q9GZT9 181-426): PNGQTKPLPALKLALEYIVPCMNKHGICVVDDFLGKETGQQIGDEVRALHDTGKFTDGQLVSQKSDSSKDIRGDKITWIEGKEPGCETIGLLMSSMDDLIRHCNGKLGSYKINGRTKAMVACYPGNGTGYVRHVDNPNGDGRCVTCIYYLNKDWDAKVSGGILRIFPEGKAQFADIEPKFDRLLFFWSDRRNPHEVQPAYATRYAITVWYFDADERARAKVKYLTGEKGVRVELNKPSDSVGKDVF

[4] = target: T3, PHD2_181‐426; assay: biochemical; remark: listed apart in the source
[5] = target: FIH (Homo sapiens, UniProt Q9NWT6); assay: biochemical
Sequence of FIH (Q9NWT6 whole entry): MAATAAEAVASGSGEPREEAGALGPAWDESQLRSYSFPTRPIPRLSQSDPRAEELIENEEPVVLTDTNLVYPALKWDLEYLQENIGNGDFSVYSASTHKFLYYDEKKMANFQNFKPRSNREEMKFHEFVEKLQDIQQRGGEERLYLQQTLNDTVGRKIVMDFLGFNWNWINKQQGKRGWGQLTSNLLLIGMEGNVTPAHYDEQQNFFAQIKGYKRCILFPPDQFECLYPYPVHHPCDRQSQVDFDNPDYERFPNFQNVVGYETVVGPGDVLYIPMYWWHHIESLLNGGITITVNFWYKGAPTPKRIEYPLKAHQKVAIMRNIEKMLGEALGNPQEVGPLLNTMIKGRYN
Description: chromatogram data were extracted for the +2 charge state and peak area data integrated using
RapidFire Integrator software (Agilent). The % conversion of the CODD peptide substrate to the +16 hydroxylated peptide was calculated using the equation:
determined from non-linear regression plots using GraphPad prism 6.0.
was normalized to no enzyme control.2
RapidFire-MS FIH hydroxylation assays
in the assay buffer (50 mM Tris-HCl pH 7.8, 50 mM NaCl) was pre - incubated for 15 minutes in
the presence of the inhibitors and the enzyme reaction initiated by addition of 20 μL substrate (200
μM L-ascorbic acid, 20 μM Fe(II) sulfate, 10 μM synthetic ankyrin peptide and 20 μM 2OG).[16]
After 15 minutes the reaction was quenched by addition of 4 μL 10% formic acid and the reaction
transferred to a RapidFire RF360 high throughput sampling robot. Samples were aspirated under
vacuum onto a C4 SPE cartridge. After an aqueous washing step (0.1% (v/v) aqueous formic acid),
to remove non-volatile buffer components from the C4 SPE cartridge , peptide was eluted in an
Ion chromatogram data was extracted for the non -hydroxylated
peptide substrate and the hydroxylated peptide product; the peak area data for extracted ion
chromatograms were integrated using RapidFire Integrator software. % conversion of substrate to
product was calculated in Microsoft excel and IC50 curves generated using Graph pad Prism.

[6] = target: T4, KDM4A (Homo sapiens, UniProt O75164); assay: biochemical
T4 sequence (O75164 1-359 limits assumed): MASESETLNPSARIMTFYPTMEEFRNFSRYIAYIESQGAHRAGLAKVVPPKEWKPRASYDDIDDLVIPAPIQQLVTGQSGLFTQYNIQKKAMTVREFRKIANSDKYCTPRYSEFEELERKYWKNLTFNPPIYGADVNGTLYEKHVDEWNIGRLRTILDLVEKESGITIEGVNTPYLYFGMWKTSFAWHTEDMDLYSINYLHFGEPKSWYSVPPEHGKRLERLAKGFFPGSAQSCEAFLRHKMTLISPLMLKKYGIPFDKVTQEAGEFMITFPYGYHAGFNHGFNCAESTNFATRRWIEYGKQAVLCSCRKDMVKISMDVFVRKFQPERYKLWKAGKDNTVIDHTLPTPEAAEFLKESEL
Description: RapidFire-MS KDM4A hydroxylation assays
(§3) (RF-MS). […] The KDM4A RF-MS assay measures
(§4) depletion of a histone H3-K9 (Me3) peptide substrate and appearance of the dimethyl peptide
(§5) oxoglutarate (2OG, code K3752) were from Sigma Aldrich (Poole, Dorset). The H3K9Me3 peptide
(§6) each day to a concentration of 50 mM in deionized water, ferrous ammonium sulphate was prepared
(§7) freshly each day by dissolving to 400 mM in 10 mM HCl and then dilution to 1 mM in deionized
(§8) water, 2OG was prepared freshly each day by dissolving in 10 mM in deionized water. The
(§9) KDM4A RF-MS assay was performed in 384-well plate format in assay buffer (50 mM MES pH
(§10) 7.0). All reagent dispenses were performed using a multidrop reagent dispenser (Thermo). Dilutions
(§11) of compounds were prepared using an ECHO 550 acoustic dispenser (Labcyte) and dry dispensed
(§12) (250 nL) in duplicate into 384-well polypropylene plates (Greiner Bio-One); DMSO (250 nL) was
(§13) dispensed into columns 12 and 2, 4-pyridinedicarboxylic acid (a known JmjC KDM inhibitor)[21]
(§14) (250 nL of 10 mM) was dispensed into column 24 as a no enzyme control. KDM4A (300 nM) was
(§15) minutes. Reaction was initiated by dispensing of 25 µL of assay buffer containing substrate and co-
(§16) factors (200 µM LAA, 20 µM FAS, 20 µM 2OG and 20 µM H3K9Me3 peptide); reactions were
(§17) allowed to progress for 50 minutes, then stopped by addition of 5 µL of 10% (v/v) aqueous formic
(§18) acid. The final assay concentration of DMSO was 0.5% (v/v). Assay plates were transferred to a
(§19) RapidFire RF365 high throughput sampling robot and samples aspirated under vacuum onto a C4
(§20) SPE cartridge. After an aqueous wash step (0.1% v/v formic acid in water) to remove non-volatile
(§21) buffer components from the C4 SPE, peptide was eluted from the C4 SPE in an organic wash step
(§22) cycle of sample aspiration, loading, wash and elution takes approximately 12 seconds. Peptide
(§23) charge states were monitored in the positive ESI mode with a drying gas temperature of 280°C, a
(§24) drying gas flow rate of 13 L/minute, nebulizer gas pressure of 40 PSI, sheath gas temperature of
(§25) 350°C, sheath gas flow rate of 12 L/min and a nozzle voltage of 1000V. Ion chromatogram data
(§26) was extracted for the substrate and the product methyl marks and peak area data for extracted ion
(§27) chromatograms were integrated using RapidFire Integrator software (Agilent). % conversion to the
(§28) dimethyl peptide product was calculated using the equation:
(§29) % conversion = 100 x dimethyl / (dimethyl + trimethyl peptide)
(§30) IC50 data were determined from non -linear regression plots using GraphPad prism 6.0

[7] = test system: Hep‐3B human cell line; assay: Cellular HIF-1α stabilization by immunoblotting; assay type: cell-based; conditions: Hep3B, 3 hours, immunoblot
Description: Other factors including cell penetration and metabolism likely impact on cellular activity.
Supplementary Information
Figure S7: Immunoblots of Hep3B cells treated with 100 μM (A) and 20 μM (B) PHD inhibitors for 3 hours. The blots show protein levels of HIF1-α and β-actin at the 3rd hour. Protocols for cell culture and immunoblotting have been previously reported.[2] […]

[8] = target: T4, KDM4A
Description: RapidFire-MS KDM4A hydroxylation assays
as §3, §4, §5, §6, §7, §8, §9, §10, §11, §12, §13, §14, §15, §16, §17, §18, §19, §20, §21, §22, §23, §24, §25, §26, §27, §28, §29, §30

Cc1nc(C(=O)NCC(=O)O)c(O)c2ccc(Oc3ccccc3)cc12 [compound 1, Roxadustat, reference compound]
OGFOD1 activity relative to control [1]: 100%

CCOC(=O)c1cnc(-n2cccn2)nc1O [compound 6, Ethyl 4-hydroxy-2-(1H-pyrazol-1-yl) pyrimidine-5-carboxylate]
vCPH inhibition (in words) [2]: inactive | IC50 [3]: > 25 µM | IC50 [4]: > 25 µM | IC50 [5]: > 25 µM | IC50 [6]: > 25 µM

O=C(NCc1ccc(Oc2ccccc2)cc1)c1cnc(-n2cccn2)nc1O [compound 8, 4-Hydroxy-N-(4-phenoxybenzyl)-2-(1H-pyrazol-1-yl)pyrimidine-5-carboxamide]
IC50 [2]: 2 ± 0.1 µM | OGFOD1 activity relative to control [1]: 83±13% | cellular HIF‐1α stabilization ([7]; 100 μM): strongest activity | IC50 [6]: > 25 µM

O=C(NCc1ccc(-c2ccccc2)cc1)c1cnc(-n2cccn2)nc1O [compound 9, N-([1,1’-Biphenyl]-4-ylmethyl)-4-hydroxy-2-(1H-pyrazol-1-yl)pyrimidine-5-carboxamide]
IC50 [5]: > 25 µM | IC50 [6]: 20 µM

O=C(NCc1ccccc1)c1cnc(-n2cccn2)nc1O [compound 10, N-Benzyl-4-Hydroxy-2-(1H-pyrazol-1-yl)pyrimidine-5-carboxamide]
IC50 [6]: > 25 µM

O=C(NCc1ccccn1)c1cnc(-n2cccn2)nc1O [compound 11, 4-Hydroxy-2-(1H-pyrazol-1-yl)-N-(pyridin-2-ylmethyl)pyrimidine-5-carboxamide]
IC50 [6]: 17 µM

O=C(NCC1CCCCC1)c1cnc(-n2cccn2)nc1O [compound 12, N-(Cyclohexylmethyl)-4-hydroxy-2-(1H-pyrazol-1-yl)pyrimidine-5-carboxamide]
IC50 [3]: > 25 µM | IC50 [4]: > 25 µM | IC50 [5]: > 25 µM | IC50 [6]: > 25 µM

O=C(NCc1cccc(C(F)(F)F)c1)c1cnc(-n2cccn2)nc1O [compound 13, 4-Hydroxy-2-(1H-pyrazol-1-yl)-N-(3-(trifluoromethyl)benzyl)pyrimidine-5-carboxamide]
OGFOD1 activity relative to control [1]: 75±1% | IC50 [5]: > 25 µM | IC50 [6]: > 25 µM

O=C(NCc1ccc2c(c1)OCO2)c1cnc(-n2cccn2)nc1O [compound 14, N-(Benzo[d][1,3]dioxol-5-ylmethyl)-4-hydroxy-2-(1H-pyrazol-1-yl)pyrimidine-5-carboxamide]
IC50 [3]: 0.261 ± 0.037 µM | IC50 [4]: 0.274 ± 0.034 µM | IC50 [6]: 23 µM

O=C(Nc1ccc(-c2ccccc2)cc1)c1cnc(-n2cccn2)nc1O [compound 15, N-([1,1’-Biphenyl]-4-yl)-4-hydroxy-2-(1H-pyrazol-1-yl)pyrimidine-5-carboxamide]
IC50 [2]: 28.2 ± 1 µM | cellular HIF‐1α stabilization ([7]; 20 μM): manifested HIF‐1α stabilization | cellular HIF‐1α stabilization ([7]; 100 μM): strongest activity | IC50 [6]: > 25 µM

O=C(N[C@@H](CO)c1ccccc1)c1cnc(-n2cccn2)nc1O [compound 16]
IC50 [2]: 1.1 ± 0.1 µM | OGFOD1 activity relative to control [1]: 41±5% | cellular HIF‐1α stabilization ([7]; 100 μM): inactive | IC50 [6]: > 25 µM

O=C(N[C@H](CO)c1ccccc1)c1cnc(-n2cccn2)nc1O [compound 17]
OGFOD1 activity relative to control [1]: 70±3% | cellular HIF‐1α stabilization ([7]; 100 μM): modest HIF‐1α stabilization | IC50 [6]: 21 µM

Cc1cccnc1CN1CCC2(CC1)C(=O)N(c1ccc(-c3ccccc3)cc1)C(=O)N2c1ncccn1 [compound 18, reference compound]
IC50 [2]: > 100 µM | cellular HIF‐1α stabilization ([7]; 20 μM): manifested HIF‐1α stabilization | cellular HIF‐1α stabilization ([7]; 100 μM): strongest activity | IC50 [8]: 4.65 µM | IC50 [5]: > 25 µM
